How the values were obtained:
[1] = target: T1, FL Hs mtDNA helicase (TWINKLE) (Homo sapiens, UniProt Q96RR1); assay: malachite green ATPase assay; format: biochemical; conditions: 8 mM Mg acetate, pH 7.5, room temperature
T1 construct: gene TWNK; full-length, recombinant, Ni-NTA purified
T1 sequence (Q96RR1 32-684): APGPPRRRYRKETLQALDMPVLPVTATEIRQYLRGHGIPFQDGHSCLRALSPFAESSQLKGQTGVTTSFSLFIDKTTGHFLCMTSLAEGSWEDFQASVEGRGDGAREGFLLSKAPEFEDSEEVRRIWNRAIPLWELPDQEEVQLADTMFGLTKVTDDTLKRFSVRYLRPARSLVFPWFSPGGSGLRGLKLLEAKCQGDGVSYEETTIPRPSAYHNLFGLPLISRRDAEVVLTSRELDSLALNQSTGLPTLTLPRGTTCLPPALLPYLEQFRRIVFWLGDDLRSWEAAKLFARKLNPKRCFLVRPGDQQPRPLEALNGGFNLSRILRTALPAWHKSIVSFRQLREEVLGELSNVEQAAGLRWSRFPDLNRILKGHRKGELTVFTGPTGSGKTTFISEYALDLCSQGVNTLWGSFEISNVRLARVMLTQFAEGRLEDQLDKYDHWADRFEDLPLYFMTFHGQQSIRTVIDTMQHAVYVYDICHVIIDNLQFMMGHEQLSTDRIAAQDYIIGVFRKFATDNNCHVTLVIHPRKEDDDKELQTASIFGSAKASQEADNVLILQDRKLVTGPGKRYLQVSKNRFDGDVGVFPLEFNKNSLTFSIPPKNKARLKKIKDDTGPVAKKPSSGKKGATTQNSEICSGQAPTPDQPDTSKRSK

[2] = target: T2, ΔN-helicase (P66) (Homo sapiens, UniProt Q96RR1); assay: malachite green ATPase assay; format: biochemical; conditions: 8 mM Mg acetate, pH 7.5, room temperature
T2 construct: gene TWNK; variant lacking the N-terminus, termed P66 in Ziebarth et al. 2007
T2 sequence (Q96RR1 85-684 limits assumed): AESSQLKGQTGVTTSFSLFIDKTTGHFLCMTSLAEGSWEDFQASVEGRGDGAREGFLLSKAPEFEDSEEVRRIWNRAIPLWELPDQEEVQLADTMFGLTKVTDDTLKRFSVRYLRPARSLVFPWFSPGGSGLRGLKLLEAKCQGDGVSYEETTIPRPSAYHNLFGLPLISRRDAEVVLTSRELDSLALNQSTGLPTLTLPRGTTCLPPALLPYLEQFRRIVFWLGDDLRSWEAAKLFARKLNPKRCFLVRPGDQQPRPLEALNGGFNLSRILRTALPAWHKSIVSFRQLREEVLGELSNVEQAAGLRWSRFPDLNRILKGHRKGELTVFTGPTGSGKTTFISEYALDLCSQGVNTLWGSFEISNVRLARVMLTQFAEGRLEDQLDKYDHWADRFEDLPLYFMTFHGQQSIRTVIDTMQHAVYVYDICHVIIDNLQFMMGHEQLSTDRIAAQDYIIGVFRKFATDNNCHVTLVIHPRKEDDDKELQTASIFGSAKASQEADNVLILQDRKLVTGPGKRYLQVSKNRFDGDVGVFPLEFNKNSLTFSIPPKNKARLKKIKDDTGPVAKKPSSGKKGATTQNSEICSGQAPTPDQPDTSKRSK

With Nc1ncnc2c1ncn2[C@@H]1O[C@H](COP(=O)(O)OP(=O)(O)OP(=O)(O)O)[C@@H](O)[C@H]1O [ATP] the “malachite green ATPase assay” value [1] was “ATP hydrolysis of FL helicase was increased with added calf thymus DNA” and the “malachite green ATPase assay” value [2] was “the ATPase activity of ΔN-helicase, termed P66”.

Reference: article PMC8688847, “Implications of Membrane Binding by the Fe-S Cluster-Containing N-Terminal Domain in the Drosophila Mitochondrial Replicative DNA Helicase” (Frontiers in Genetics, 2021)
